Experimental data from the NIST ThermoML archive (doi:10.1016/j.jct.2018.02.001).

How the values were obtained:
[1] = 101.33 kPa, Liquid, Vibrating tube method
[2] = mn = molality of the nth substance listed, in mol/kg; settings: 100 kPa, Liquid, Vibrating tube method

CCCCCC[n+]1ccn(CCCC)c1.[Br-] [1-butyl-3-hexyl-1H-imidazolium bromide]
[1]
Settings	mass density [kg/m3]
293.15 K	1148.8
298.15 K	1145.49
303.15 K	1142.11
308.15 K	1138.66
313.15 K	1135.17
318.15 K	1131.7
323.15 K	1128.22

CCCCn1cc[n+](CCCC)c1.[Br-] [1,3-dibutylimidazolium bromide] + O
mass density [kg/m3], [2]
Settings	m1 = 0.01076	m1 = 0.01516	m1 = 0.02165	m1 = 0.02575	m1 = 0.03042	m1 = 0.0354	m1 = 0.04047
293.15 K	998.64	998.84	999.13	999.32	999.54	999.77	1000
298.15 K	997.46	997.65	997.93	998.11	998.31	998.52	998.74
303.15 K	995.91	996.08	996.4	996.57	996.78	996.98	997.16
308.15 K	994.12	994.3	994.63	994.79	995	995.2	995.35

CCCCCC[n+]1ccn(CCCC)c1.[Br-] [1-butyl-3-hexyl-1H-imidazolium bromide] + O
mass density [kg/m3], [2]
Settings	m1 = 0.0051	m1 = 0.0109	m1 = 0.01511	m1 = 0.01999	m1 = 0.02536	m1 = 0.03025	m1 = 0.03503	m1 = 0.03996	m1 = 0.0452	m1 = 0.05
293.15 K	998.4	998.6	998.8	999	999.22	999.42	999.62	999.82	1000.03	1000.23
298.15 K	997.22	997.41	997.6	997.79	998.01	998.2	998.39	998.58	998.79	998.978
303.15 K	995.73	995.88	996.06	996.24	996.44	996.64	996.82	997.01	997.21	997.38
308.15 K	994.04	994.09	994.2	994.38	994.6	994.81	994.99	995.17	995.35	995.51

CCCCCCCCCCCC[n+]1ccn(CCCC)c1.[Br-] [1-butyl-3-dodecyl-1H-imidazolium bromide] + O
mass density [kg/m3], [2]
Settings	293.15 K	298.15 K	303.15 K
m1 = 0.0055	998.33	997.09	995.65
m1 = 0.0082	998.38	997.13	995.66
m1 = 0.0092	998.4	997.15	995.68
m1 = 0.0149	998.51	997.26	995.7
m1 = 0.0217	998.64	997.39	995.82
m1 = 0.0252	998.71	997.46	995.9
m1 = 0.0317	998.83	997.58	996
m1 = 0.0337	998.87	997.62	996.04
m1 = 0.0399	999	997.74	996.15
m1 = 0.0479	999.15	997.88	996.3
m1 = 0.0503	999.19	997.92	996.34

CCCC[n+]1ccn(CC)c1.[Br-] [1-butyl-3-ethylimidazolium bromide]
[1]
Settings	mass density [kg/m3]
293.15 K	1263.23
298.15 K	1259.4
303.15 K	1255.95
308.15 K	1252.45
313.15 K	1248.92
318.15 K	1245.45
323.15 K	1241.93

CCCCCCCCCCCC[n+]1ccn(CC)c1.[Br-] [3-dodecyl-1-ethyl-1H-imidazolium bromide]
[1]
Settings	mass density [kg/m3]
293.15 K	1084.31
298.15 K	1080.97
303.15 K	1077.53
308.15 K	1074.03
313.15 K	1070.48
318.15 K	1066.96
323.15 K	1063.43

CCCCCCCC[n+]1ccn(CC)c1.[Br-] [1-ethyl-3-octyl-1H-imidazolium bromide]
[1]
Settings	mass density [kg/m3]
293.15 K	1148.89
298.15 K	1145.43
303.15 K	1141.74
308.15 K	1138.13
313.15 K	1134.69
318.15 K	1131.07
323.15 K	1127.5

CCn1cc[n+](CC)c1.[Br-] [1,3-diethyl-1H-imidazolium bromide]
[1]
Settings	mass density [kg/m3]
293.15 K	1355.06
298.15 K	1351.21
303.15 K	1347.51
308.15 K	1343.75
313.15 K	1339.95
318.15 K	1336.13
323.15 K	1332.29

CCn1cc[n+](CC)c1.[Br-] [1,3-diethyl-1H-imidazolium bromide] + O
mass density [kg/m3], [2]
Settings	m1 = 0.01477	m1 = 0.01845	m1 = 0.02167	m1 = 0.0271	m1 = 0.03151	m1 = 0.035	m1 = 0.04375	m1 = 0.04513	m1 = 0.05018
293.15 K	998.92	999.11	999.27	999.55	999.78	999.96	1000.42	1000.49	1000.75
298.15 K	997.72	997.91	998.07	998.35	998.57	998.75	999.19	999.26	999.51
303.15 K	996.18	996.36	996.52	996.8	997.03	997.2	997.63	997.7	997.94
308.15 K	994.23	994.41	994.58	994.87	995.11	995.29	995.71	995.77	995.97
